Test results reported in patent US20240285552A1 (priority 2020, published 2024).
Several values for one entry are separate records, joined by “and”; a condition that tells them apart may be missing. Identical values can stand only once. Entries after “also recorded” stand apart in the source; their conditions may differ. Counter-ions that a name gives are not always drawn. Like-named read-outs stand apart in the source and are kept apart here.

How the values were obtained:
[1] = target: T1, recombinant human ACE2 (rhACE2) (Homo sapiens, UniProt Q9BYF1); assay: ACE2 exopeptidase inhibitor screening assay (fluorogenic substrate), AMB and BHH; type: biochemical
T1 construct: purchased BPS Bioscience 79923
T1 sequence (Q9BYF1 18-805): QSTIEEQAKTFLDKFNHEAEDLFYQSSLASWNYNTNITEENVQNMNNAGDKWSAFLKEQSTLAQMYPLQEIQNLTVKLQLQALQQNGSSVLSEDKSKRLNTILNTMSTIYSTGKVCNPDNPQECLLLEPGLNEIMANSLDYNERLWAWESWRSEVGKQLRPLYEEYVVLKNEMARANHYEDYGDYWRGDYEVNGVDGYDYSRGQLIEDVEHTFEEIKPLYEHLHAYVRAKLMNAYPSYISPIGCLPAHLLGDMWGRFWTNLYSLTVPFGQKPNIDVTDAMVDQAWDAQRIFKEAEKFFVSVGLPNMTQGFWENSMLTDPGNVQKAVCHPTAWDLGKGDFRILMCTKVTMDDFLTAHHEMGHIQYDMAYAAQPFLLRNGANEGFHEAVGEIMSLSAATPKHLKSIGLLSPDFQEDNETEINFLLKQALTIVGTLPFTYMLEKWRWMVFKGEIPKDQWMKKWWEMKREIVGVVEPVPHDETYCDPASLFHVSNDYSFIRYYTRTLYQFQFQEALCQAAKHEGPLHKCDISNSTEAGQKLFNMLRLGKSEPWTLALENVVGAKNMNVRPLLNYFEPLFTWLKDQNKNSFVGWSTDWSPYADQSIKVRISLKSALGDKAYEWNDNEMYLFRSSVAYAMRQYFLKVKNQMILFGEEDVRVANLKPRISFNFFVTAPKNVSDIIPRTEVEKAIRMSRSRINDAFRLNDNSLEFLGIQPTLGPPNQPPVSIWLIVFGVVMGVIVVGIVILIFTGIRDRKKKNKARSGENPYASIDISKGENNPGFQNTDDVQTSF
Protocol: ACE2 Inhibitor Screening Assay. An ACE2 exopeptidase Inhibitor screening assay kit with the fluorogenic substrate (Catalogue #79923) was purchased from BPS Bioscience (San Diego, CA) and modified to measure the exopeptidase activity of ACE2 in the presence and absence of inhibitors (BPSBioscience, 2022). Following the manufacturer's directions, the fluorescence assay was carried out in a 96-well black flat-bottom plate with a final reaction volume of 50 μL. 50 mM stock solutions of BHH and AMB in 100% DMSO were prepared. Compounds were serially diluted in DMSO as follows: 500, 250, 100, 50, 10, 1, 0.1 μM. All experiments were done in triplicates and repeated twice. A positive control of enzyme treated with vehicle alone (2 percent DMSO) and a blank control with no enzyme were included on each plate.
Each reaction had 24 μL of purified recombinant human ACE2 protein (0.42 ng/L) in ACE2 buffer, 1 μL of the compound at different concentrations, and 25 μL ACE2 fluorogenic substrate. The final volume of the reaction was 50 μL. The reaction mixtures were incubated for 1 hr at room temperature (22° C.) and protected from light. After that, the fluorescence intensities (λExcitation=535 nm, λEmission=595 nm) were measured using a Spectramax iD3 multimode plate reader. The background hydrolysis was subtracted, and the data were fitted to a four-parameter logistic (variable slope) equation using GraphPad prism software 9.1.

[2] = tested on: SARS-CoV-2 spike pseudotyped lentivirus; assay: microbe, parasite or virus in culture; type: cell-based
[3] = tested on: SARS-CoV-2 USA_WA1/2020; assay: microbe, parasite or virus in culture; type: cell-based
[4] = target: T2, rhACE2 and SARS-CoV-2 Spike (RBD) protein interaction (Homo sapiens, UniProt Q9BYF1); assay: Spike (RBD)-ACE2 binding assay (ELISA); design: species or system human; SARS-CoV-2; conditions: for IC50: bell-shaped model, AMB, BHH
T2 construct: purchased RayBiotech CoV-SACE2-1
T2 sequence (Q9BYF1 18-740): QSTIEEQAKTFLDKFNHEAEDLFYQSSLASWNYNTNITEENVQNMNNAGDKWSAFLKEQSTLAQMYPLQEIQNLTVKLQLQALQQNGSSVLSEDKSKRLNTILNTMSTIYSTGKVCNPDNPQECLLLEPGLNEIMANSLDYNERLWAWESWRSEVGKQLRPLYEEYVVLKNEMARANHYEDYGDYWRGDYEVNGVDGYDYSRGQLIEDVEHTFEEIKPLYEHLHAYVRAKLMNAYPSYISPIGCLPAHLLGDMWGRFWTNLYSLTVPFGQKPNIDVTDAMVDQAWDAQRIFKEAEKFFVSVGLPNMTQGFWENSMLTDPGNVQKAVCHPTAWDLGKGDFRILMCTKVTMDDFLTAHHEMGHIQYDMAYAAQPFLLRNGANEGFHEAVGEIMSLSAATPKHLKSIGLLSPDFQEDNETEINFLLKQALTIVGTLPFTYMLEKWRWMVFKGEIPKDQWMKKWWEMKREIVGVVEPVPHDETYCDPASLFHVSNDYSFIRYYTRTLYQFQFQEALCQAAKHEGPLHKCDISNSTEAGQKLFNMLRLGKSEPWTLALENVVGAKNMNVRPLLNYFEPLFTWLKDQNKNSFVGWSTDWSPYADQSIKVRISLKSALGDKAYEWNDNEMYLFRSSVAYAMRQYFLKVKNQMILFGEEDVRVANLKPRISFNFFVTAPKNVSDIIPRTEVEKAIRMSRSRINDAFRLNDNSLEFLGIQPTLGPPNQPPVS

[5] = tested on: ACE1; assay: Western blotting, ACE1 expression in A549 cells; type: cell-based, human; conditions: 50 μm, 24 hrs and 48 hrs
Protocol: (§1) Western blotting. A549 “Lung” cells (RRID:CVCL_COQ5) were harvested in a radioimmuno precipitation assay (RIPA) buffer (Tris 10 mM pH 7.4, containing 140 mM NaCl, 1 mM EDTA, 1 mM NaF, 0.10% SDS, 0.50% sodium deoxycholate 0.1% NP-40, 1% Triton X-100) in the presence of protease inhibitors (Thermo Fisher) at 24 hrs. and 48 hrs. Protein concentration was determined by was determined using bicinchoninic acid with bovine serum albumin as a standard (Thermo Fisher). Equal amounts of protein were loaded and separated by SDS-PAGE using 10% pre-casted gels (Biorad). Proteins were electroblotted onto nitrocellulose membranes (Bio-Rad). The blots were blocked using 5% (w/v) milk in Tris-buffered saline containing 0.5% (v/v) Tween-20. The membranes were then incubated with different antibodies. Antibodies directed against ACE1 (ab28311) and ACE2 (ab108209) were used and the GAPDH antibody was used as loading control for cell lysates. Primary and secondary antibodies were diluted in Tris-buffered saline containing (0.5% v/v) Tween-20 (TBS-T) supplemented with 5% milk. The bands were visualized by incubating the blots with enhanced chemiluminescence reagent (ECL, Biorad) and visualized using chemidoc. Band intensities were quantified by using imagelab software Biorad.

[6] = tested on: ACE2; assay: Western blotting, ACE2 expression in A549 cells; type: cell-based, human; conditions: 50 μm, 24 hrs and 48 hrs
Protocol: as §1

With `Nc1c(Br)cc(Br)cc1CN[C@H]1CC[C@H](O)CC1` [AMB, 4-[(2-amino-3,5-dibromophenyl)methylamino]cyclohexan-1-ol; hydrochloride] the “ACE2 Exopeptidase Activity: Percent Activity” value ([1]; 0.1 uM) was 148.7%, the inhibition at 0.1 µM ([1]; 0.1 uM, read-out: ACE2 Exopeptidase Activity: Percent Inhibition) was -48.7% and the “ACE2 Exopeptidase Activity: Percent Activity” value ([1]; 1 uM) was 152.3%. The inhibition at 1 µM ([1]; 1 uM, read-out: ACE2 Exopeptidase Activity: Percent Inhibition) was -52.3%, the “ACE2 Exopeptidase Activity: Percent Activity” value ([1]; 10 uM) was 159.9% and the inhibition at 10 µM ([1]; 10 uM, read-out: ACE2 Exopeptidase Activity: Percent Inhibition) was -59.9%. For the same molecule, the “ACE2 Exopeptidase Activity: Percent Activity” value ([1]; 50 uM) was 157.1%, the inhibition at 50 µM ([1]; 50 uM, read-out: ACE2 Exopeptidase Activity: Percent Inhibition) was -57.1% and the “ACE2 Exopeptidase Activity: Percent Activity” value ([1]; 100 uM) was 156.9%. For the same molecule, the inhibition at 100 µM ([1]; 100 uM, read-out: ACE2 Exopeptidase Activity: Percent Inhibition) was -56.9%, the “ACE2 Exopeptidase Activity: Percent Activity” value ([1]; 250 uM) was 144.7% and the inhibition at 250 µM ([1]; 250 uM, read-out: ACE2 Exopeptidase Activity: Percent Inhibition) was -44.7%. The “ACE2 Exopeptidase Activity: Percent Activity” value ([1]; 500 uM) was 141.0%, the inhibition at 500 µM ([1]; 500 uM, read-out: ACE2 Exopeptidase Activity: Percent Inhibition) was -41% and the “effect on exopeptidase activity of rhACE2” value ([1]; tested 0.1 to 500 μM) was “did not inhibit”. For the same molecule, the “Percent Inhibition of fusion of SARS-CoV-2 spike pseudotyped lentivirus with HEK293-ACE2 cells” value (“Percent Inhibition” below) ([2]; 10 μM, Table 3, hydrochloride) was 86% and 55%, the “Percent Inhibition” value ([2]; 25 μM, Table 3, hydrochloride) was 64% and the “Percent (%) Inhibition of Pseudo virus Entry in HEK293 Kidney Cells, SARS-COV-2” value ([2]; 50 μM, Table 2, hydrochloride) was 46%. The “Percent Inhibition” value ([2]; 50 μM, Table 3, hydrochloride) was 59%, the “Percent Inhibition” value ([2]; 100 μM, Table 3, hydrochloride) was 47% and the inhibition at 25 µM ([2]; Severe acute respiratory syndrome coronavirus 2, 25 μM, Table 3, read-out: Percent Inhibition of fusion of SARS-CoV-2 spike pseudotyped lentivirus with HEK293-ACE2 cells) was 78%. For the same molecule, the inhibition at 50 µM ([2]; Severe acute respiratory syndrome coronavirus 2, 50 μM, Table 3, read-out: Percent Inhibition of fusion of SARS-CoV-2 spike pseudotyped lentivirus with HEK293-ACE2 cells) was 72%, the inhibition at 100 µM ([2]; Severe acute respiratory syndrome coronavirus 2, 100 μM, Table 3, read-out: Percent Inhibition of fusion of SARS-CoV-2 spike pseudotyped lentivirus with HEK293-ACE2 cells) was 41% and the inhibition at 10 µM ([2]; Severe acute respiratory syndrome coronavirus 2, HEK293, 10 μM, Table 2, read-out: Percent (%) Inhibition of Pseudo virus Entry in HEK293 Kidney Cells, SARS-COV-2) was 2%. It also gave an inhibition at 25 µM ([2]; Severe acute respiratory syndrome coronavirus 2, HEK293, 25 μM, Table 2, read-out: Percent (%) Inhibition of Pseudo virus Entry in HEK293 Kidney Cells, SARS-COV-2) of 12%, an inhibition at 50 µM ([2]; Severe acute respiratory syndrome coronavirus 2, HEK293, 50 μM, Table 2, read-out: Percent (%) Inhibition of Pseudo virus Entry in HEK293 Kidney Cells, SARS-COV-2) of ~50% and an inhibition at 100 µM ([2]; Severe acute respiratory syndrome coronavirus 2, HEK293, 100 μM, Table 2, read-out: Percent (%) Inhibition of Pseudo virus Entry in HEK293 Kidney Cells, SARS-COV-2) of 89%. The “Concentration at Maximum % Inhibition” value ([3]; Example C (Table 3)) was 150 µM, the “Maximum Inhibition” value ([3]; Example C (Table 3)) was 49.87% and the IC50 ([3]; Example C (Table 3), hydrochloride, read-out: IC 50 against SARS-COV-2 Induced Cytopathic Effect in Vero E6 Cells) was > 150 µM. For the same molecule, the IC50 ([3]; Severe acute respiratory syndrome coronavirus 2, Vero C1008, Example C (Table 3), read-out: IC 50 against SARS-COV-2 Induced Cytopathic Effect in Vero E6 Cells) was ≥ 150 µM, the IC50 ([3]; Severe acute respiratory syndrome coronavirus 2, Vero C1008, Vero E6, Example B, highest concentration tested 30 μM, read-out: IC50 against SARS-CoV-2 infection induced CPE) was > 30 µM and the inhibition at 30 µM ([3]; Severe acute respiratory syndrome coronavirus 2, Vero C1008, at 30 μM, Example B, read-out: inhibition of SARS-CoV-2 induced CPE at maximum concentration) was 14.2%. For the same molecule, the “effect on Spike (RBD)-rhACE2 interaction” value ([4]; 100 μM to 100 nM, hydrochloride) was “did not produce a stimulation or enhancement of binding; also recorded: more potent at disrupting the interaction between ACE2 and RBD than BHH”, the IC50 ([4]; highest tested 100 μM, read-out: Estimated Relative IC50 against rhACE2 and RBD Interaction Assay, IC50_2) was 232 µM and the IC50 ([4]; read-out: Estimated Relative IC50 against rhACE2 and RBD Interaction Assay, IC50_1) was 0.82 µM. For the same molecule, the “change of ACE1 expression” value [5] was “no changes” and the “change of ACE2 expression” value [6] was “no changes”.
